The record followed here is patent publication US10080748B2, “Use of flap inhibitors to reduce neuroinflammation mediated injury in the central nervous system” (Bioscience Pharma Partners, LLC, priority 2014, dated 2018).

The structures appear in SMILES notation.

Assay [1] deals with rats subjected to FPI (TBI model). Briefly: Gd-enhanced T1-weighted MRI, BBB disruption 72 hours after TBI (rat FPI). The format is in vivo. Here is the method: Craniotomy and lateral fluid percussion injury (FPI) were performed using a previously validated and published procedure. Farias S, et al. J. Neurotraum, 26, 1977-1986, 2009; Frey L. C. et al. J. Neurosci. Methods 177, 267-272, 2009. Throughout the specification animals subjected to this protocol are referred to as having a TBI since this treatment protocol is a TBI model. Briefly, rats were anesthetized with 3-5% isoflurane, isosol, VEDCO Inc., St. Joseph, Mo., via nose cone and mounted in a stereotaxic head frame. A 3 millimeter (mm) craniotomy was created and centered at 3 mm caudal to bregma and 3.5 mm left of the sagittal suture, keeping the exposed dura intact. One steel support screw was embedded in the skull on the contralateral side. A Luer-Lock hub with an inside diameter of 3.5 mm was centered over the craniotomy and bonded to the skull with cyanoacrylate adhesive and capped. Dental acrylic, Snap, Parka, Inc., Edgewood, N.J., was poured around the huh and screw. After the acrylic hardened antibiotic ointment was applied around the cap and the animals were returned to their cages. The next day, approximately 15-20 hours later, animals were anesthetized with isoflurane in an induction chamber, immediately connected to the FPI apparatus, and received a 20 millisecond (ms) pulse of pressurized sterile saline at 2.7 atmospheres (atm) of pressure to simulate a moderate severity impact on the intact dural surface through the craniotomy before awakening from anesthesia. […] All animals received a subcutaneous injection of the analgesic, buprenorphine, 0.05 milligram/kilogram (mg/kg) Buprenex, prior to craniotomy, and subsequent injections every 12 hours for two days. Moistened food pellets were provided after injury, and all animals were monitored daily for well-being and weight changes. […]
The effect of leukotrienes on TBI-related BBB disruption was assessed using Gd-enhanced T1-weighted MRI 72 hours after TBI in rats. […]

Assay [2] shares this test system. Briefly: Hippocampal long-term potentiation (LTP) in slices four days after TBI (rat FPI). The class given is in vivo. Here is the method: Craniotomy and lateral fluid percussion injury (FPI) were performed using a previously validated and published procedure. Farias S, et al. J. Neurotraum, 26, 1977-1986, 2009; Frey L. C. et al. J. Neurosci. Methods 177, 267-272, 2009. Throughout the specification animals subjected to this protocol are referred to as having a TBI since this treatment protocol is a TBI model. Briefly, rats were anesthetized with 3-5% isoflurane, isosol, VEDCO Inc., St. Joseph, Mo., via nose cone and mounted in a stereotaxic head frame. A 3 millimeter (mm) craniotomy was created and centered at 3 mm caudal to bregma and 3.5 mm left of the sagittal suture, keeping the exposed dura intact. One steel support screw was embedded in the skull on the contralateral side. A Luer-Lock hub with an inside diameter of 3.5 mm was centered over the craniotomy and bonded to the skull with cyanoacrylate adhesive and capped. Dental acrylic, Snap, Parka, Inc., Edgewood, N.J., was poured around the huh and screw. After the acrylic hardened antibiotic ointment was applied around the cap and the animals were returned to their cages. […] Moistened food pellets were provided after injury, and all animals were monitored daily for well-being and weight changes. […]
Four days after FPI or at the times indicated in the figures for CHI model animals were sacrificed and the brains were rapidly removed and immersed in ice-cold, sucrose containing cutting buffer (87 mM NaCl, 2.5 mM KCl, 7 mM MgCl2, 0.5 mM CaCl2, 1.25 mM NaH2PO4, 25 mM D-glucose, 35 mM sucrose, and 25 mM NaHCO3) for 40-60 seconds to cool the interior of the brain. […] A bipolar tungsten stimulating electrode was placed in the Schaffer collateral (SC) pathway to evoke synaptic field excitatory postsynaptic potentials (fEPSPs) recorded in the stratum radiatum using a nearby glass micropipette filled with aCSF. […]

Take `CC(C)c1ccc2c(c1)c(SC(C)(C)C)c(CC(C)(C)C(=O)O)n2Cc1ccc(Cl)cc1` [MK-886, 1-[(4-Chlorophenyl)methyl]-3-[(1,1-dimethylethyl)thio]-α,α-dimethyl-5-(1-methylethyl)-1H-Indole-2-propanoic acid]: the Gd extravasation entry in assay [1] (15 min post-injury), in assay [1] (30 min pre-injury) and in assay [1] (60 min post-injury) was “no effect” in each case. Also, the “LTP, % of control fEPSP slope at 58-60 min” value in assay [2] (30 minutes post-injury) is on record as 256.13+/−8.527%; in assay [2] (30 minutes pre-injury) it was 242.75+/−76.94%; in assay [2] (60 minutes post-injury) it was 145.46+/−18.30.
